“And” between values parts separate entries of the source, which are not always exact repeats. Equal entries are not always repeated.
How the values were obtained:
Assay type in all cases: cell-based, human
iMSCs = assay: electroporation of GFP repair template at AAVS1 with or without TTAGGG motif; conditions: gene-editing at AAVS1 with GFP repair template
Procedure: FIG. 54 is a graphical illustration of the mechanism of action that the inclusion of the TTAGGG motif has on cells during electroporation. Cells were electroporated with and without the addition of a gene editing protein, UltraSlice. All electroporation's were performed using the Invitrogen NEON.
In this example, the TTAGGG motif was incorporated onto the 5′ end of a double stranded repair template or co-electroporated as a short oligo fragment in primary fibroblasts, iMSC, or iPSC.
The sequence of the TTAGGG motif used in this example was: […] (SEQ ID NO: 15). This motif was incorporated at the 5′ and 3′ end of dsODN via PCR amplification using the primer pair A151-AAVS1, Forward primer: […] (SEQ ID NO: 86) and A151-AAVS1, Reverse primer: […] (SEQ ID NO: 87). Control primers without the motif had the following sequences: AAVS1, Forward primer: […] (SEQ ID NO: 88) and AAVS1, Reverse primer: […] (SEQ ID NO: 89). The full sequence of the repair template that human primary fibroblasts, iMSCs and iPSCs was: AAVS1-h90-pJeT-GFP-SpA-h90. This repair template included a dsODN encoding a GFP reporter and containing an SfoI restriction site targeting the AAVS1 site with 90 base pairs of homology. The A151 sequence was added to the end of a double stranded repair template using PCR amplification. Repair templates were then purified using the Qiagen QIAquick PCR Purification kit prior to electroporation. […]

AAVS1 [1] = assay: 1 kb insertion in iPSCs (AAVS1 sPCR amplicon gel); conditions: iPSC
Procedure: (§1) • 1. Fibroblasts were cultured using DMEM+10% FBS media in 37° Celsius with 5% O2 and 5% CO2 • 2. iPSC was cultured using mTeSR+Y27632 in 37° Celsius with 5% O2 and 5% CO2
(§2) • 3. After detaching cells with TrypleE and DTI, standard electroporation protocol was performed • 4. 0.8 ug˜1 ug of AAVS1 Ultraslice RNA and 600 ng of SfoI ssDNA repair template was delivered by electroporation. Ultraslice is a temperature sensitive gene-editing protein. The SfoI base change ssDNA repair template was a single stranded DNA piece with homology arms that is used as template for targeted DNA repair • 5. Fibroblasts were electroporated with 700 V, 20 ms, 1 pulse • 6. iPSCs were electroporated with 1100 V, 20 ms, 2 pulse)
In this experiment, the gel image is AAVS1 sPCR amplicon and not Sfol assay product. In the gel, Lane 1: 1000 base ladder; Lane 2: Ultraslice (Clean cap) and SfoI 1 kb insertion ssDNA repair template with 90b homology arm (Reverse transcription); and Lane 3: Ultraslice (Clean cap) and SfoI 1 kb insertion ssDNA repair template with 90b homology arm (Reverse transcription)—Resveratrol 25 uM 24 h incubation.
In this experiment, the gel image is AAVS1 sPCR amplicon and not Sfol assay product. […]

fibroblasts = assay: cell cycle S/G2 population after Resveratrol treatment
AAVS1 safe-harbor locus = assay: SfoI assay (RFLP) of single-base editing in fibroblasts; conditions: for increase in single-base editing / base change efficiency compared to untreated: application after transfection (25 μM 48 h post electroporation)
Procedure: The following general protocol was used for an Sfol assay to quantify insertion of repair template.
as §1, §2
• 7. Cells were detached 48 h˜72 h post electroporation and centrifuged to obtain cell pellets • 8. Perform genomic DNA extraction was performed using ZYMO Research Quick DNA Miniprep Kit (Catalog #: D3024)
• 9. AAVS1 surveyor PCR was performed using KAPA Hifi Hotstart PCR kit
• 10. 250 ng˜400 ng of AAVS1 PCR amplicon was obtained • 11. Amplicon was mixed with 2 μl of 10× Tango Buffer and 1 μl of EheI enzyme • 12. The mixture was incubated for 1 h in 37° C., followed by 20 mins at 65° C.
• 13. After diluting SfoI assay product with 40 ul of H2O, 20 ul of product was loaded to 2% Egel • 14. After running 2% Egel for 10 minutes, the gel was visualized and SfoI band intensity was quantified using Chemidoc and ImageJ software
Following treatment with resveratrol, fibroblasts was co-transfected with mRNA encoding a chromatin context-sensitive gene-editing protein targeting the AAVS1 safe-harbor locus and a single-stranded DNA repair template designed to introduce a SfoI restriction-enzyme site through a G-to-C mutation. Single-base editing efficiency was determined by restriction fragment length polymorphism (RFLP) analysis. […] In the gel, Lane 1: 100 base ladder; Lane 2: Ultraslice and SfoI base change ssDNA repair template (Resveratrol 25 μM 48 h pretreatment); Lane 3: Ultraslice and SfoI base change ssDNA repair template (Untreated); and Lane 4: Ultraslice and SfoI base change ssDNA repair template (Resveratrol 25 μM treatment 48 post electroporation).

AAVS1 [2] = assay: 300 base insertion in fibroblasts (SfoI cut band)
Procedure: In the gel, Lane 1: 100 base ladder; Lane 2: Ultraslice and SfoI 300 base insertion dsDNA repair template (Untreated); and Lane 3: Ultraslice and SfoI 300 base insertion dsDNA repair template (NU7441 9 uM 72 h treated).

Molecule: TTAGGGTTAGGGTTAGGGTTAGGG [A151 ODN]
- higher viability than when the motif was not present (iMSCs): approximately 50%
- more GFP-positive cells than when the motif was not present (iMSCs): approximately 50%

Molecule: Oc1ccc(C=Cc2cc(O)cc(O)c2)cc1 [Resveratrol]
- 1 kb insertion rate (AAVS1 [1]; 25 uM for 24 h post electroporation, ssDNA repair template (Reverse transcription)): 8.7%
- increase of 1 kb insertion (AAVS1 [1]; treatment after electroporation): 1.6 fold
- increase in S/G2 population (fibroblasts; 25 uM for 48 h followed by 8 h incubation in DMEM/10% FBS): approximately 40%
- increase of the S and G2-phase population (fibroblasts; treatment prior to transfection, compared to untreated cells): 2.3 fold
- increase in single-base editing / base change efficiency compared to untreated (AAVS1 safe-harbor locus): approximately 2.3 fold
- increase in single-base editing / base change efficiency compared to untreated (AAVS1 safe-harbor locus; listed as resveratrol): > 2 fold
- increase in HDR / base change efficiency compared to untreated (AAVS1 safe-harbor locus; fibroblasts, 25 μM 48 h pretreatment prior to transfection): 2.2 fold and 2 fold
- gene-editing efficiency (gel) (AAVS1 safe-harbor locus; pretreated fibroblasts): increased gene-editing efficiency

Molecule: O=c1cc(N2CCOCC2)oc2c(-c3cccc4c3sc3ccccc34)cccc12 [NU7441]
- gene-editing efficiency (gel) (AAVS1 [2]): increased gene-editing efficiency
- increase in 300b insertion SfoI cut band intensity compared to untreated (AAVS1 [2]; fibroblasts, 9 uM 72 h incubation): 7 fold
